Measurements as given in PubChem BioAssay AID248 (DTP/NCI, 2004).
“And” between values parts separate entries of the source, which are not always exact repeats. Identical values can stand only once. Inconclusive results and toxic doses are left out. Rule as the data show it: active = T/C of 150% or more; inactive = T/C below 125%.

Tested on: L1210 leukemia ip in BDF1 mice, survival T/C
Experiment: NCI In Vivo Anticancer Drug Screen. Data for tumor model L1210 Leukemia (intraperitoneal) in B6D2F1 (BDF1) mice
Conditions: endpoint: mean survival time, higher = longer survival
In short: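 Value reflects the ratio of survival in compound-treated mice to survival in vehicle-treated controls, with both groups carrying the same transplanted tumor.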

[1] = dose: 100.0 mg/kg/injection, schedule: Q04DX003 (ip), vehicle: saline with Tween-80
[2] = dose: 200.0 mg/kg/injection, schedule: Q04DX003 (ip), vehicle: saline with Tween-80
[3] = dose: 100.0 mg/kg/injection, schedule: Q04DX002 (ip), vehicle: Klucel (hydroxypropylcellulose) (HPC)
[4] = dose: 200.0 mg/kg/injection, schedule: Q04DX002 (ip), vehicle: Klucel (hydroxypropylcellulose) (HPC)
[5] = dose: 400.0 mg/kg/injection, schedule: Q04DX002 (ip), vehicle: Klucel (hydroxypropylcellulose) (HPC)
[6] = dose: 100.0 mg/kg/injection, schedule: Q01DX009 (ip), vehicle: saline
[7] = dose: 100.0 mg/kg/injection, schedule: Q01DX009 (ip), vehicle: Klucel (hydroxypropylcellulose) (HPC)
[8] = dose: 200.0 mg/kg/injection, schedule: Q01DX009 (ip), vehicle: Klucel (hydroxypropylcellulose) (HPC)
[9] = dose: 400.0 mg/kg/injection, schedule: Q01DX009 (ip), vehicle: Klucel (hydroxypropylcellulose) (HPC)
[10] = dose: 100.0 mg/kg/injection, schedule: Q01DX009 (ip), vehicle: saline with Tween-80
[11] = dose: 200.0 mg/kg/injection, schedule: Q01DX009 (ip), vehicle: saline with Tween-80
[12] = dose: 100.0 mg/kg/injection, schedule: Q01DX001 (ip), vehicle: carboxymethylcellulose (CMC)
[13] = dose: 200.0 mg/kg/injection, schedule: Q01DX001 (ip), vehicle: carboxymethylcellulose (CMC)
[14] = dose: 400.0 mg/kg/injection, schedule: Q01DX001 (ip), vehicle: carboxymethylcellulose (CMC)
[15] = dose: 100.0 mg/kg/injection, schedule: Q04DX003 (ip), vehicle: Klucel (hydroxypropylcellulose) (HPC)
[16] = dose: 200.0 mg/kg/injection, schedule: Q04DX003 (ip), vehicle: Klucel (hydroxypropylcellulose) (HPC)

Measured: T/C

c1ccc(-c2cc(-c3cc(-c4ccccc4)on3)no2)cc1
inactive: dose: 50.0 mg/kg/injection, schedule: Q04DX003 (ip), vehicle: saline with Tween-80 98 % of control | [1] 98 % of control | [2] 101 % of control

O=C(O)c1ccc(=O)[nH]n1
inactive: [3] 115 % of control | [4] 93 % of control | [5] 89 % of control

CCC(C)C(CO)c1ccccc1 (stereo unspecified)
inactive: [1] 93 % of control | [2] 91 % of control

CCOC(=O)/C(C)=N\N(C)C
inactive: [6] 92 % of control | dose: 100.0 mg/kg/injection, schedule: Q04DX003 (ip), vehicle: saline 97 % of control | dose: 200.0 mg/kg/injection, schedule: Q01DX009 (ip), vehicle: saline 92 % of control | dose: 200.0 mg/kg/injection, schedule: Q04DX003 (ip), vehicle: saline 101 % of control | dose: 400.0 mg/kg/injection, schedule: Q04DX003 (ip), vehicle: saline 88 % of control

COc1cc(Br)c(CC2c3cc(OC)c(OC)cc3CC[N+]2(C)C)cc1OC (stereo unspecified)
inactive: dose: 100.0 mg/kg/injection, schedule: Q01DX001 (ip), vehicle: water 100 % of control | dose: 100.0 mg/kg/injection, schedule: Q01DX009 (ip), vehicle: water 101 % of control | dose: 100.0 mg/kg/injection, schedule: Q04DX003 (ip), vehicle: water 100 % of control | dose: 200.0 mg/kg/injection, schedule: Q01DX001 (ip), vehicle: water 102 % of control | dose: 200.0 mg/kg/injection, schedule: Q01DX009 (ip), vehicle: water 87 % of control | dose: 200.0 mg/kg/injection, schedule: Q04DX003 (ip), vehicle: water 97 % of control | dose: 400.0 mg/kg/injection, schedule: Q01DX001 (ip), vehicle: water 100 % of control | dose: 400.0 mg/kg/injection, schedule: Q04DX003 (ip), vehicle: water 91 % of control

O=c1nc2c(ncn2C2OC(CO)C(O)C2O)c(NCCc2ccccc2)[nH]1 (stereo unspecified)
inactive: dose: 50.0 mg/kg/injection, schedule: Q01DX005 (ip), vehicle: water 100 % of control | dose: 100.0 mg/kg/injection, schedule: Q01DX005 (ip), vehicle: water 94 % of control | dose: 200.0 mg/kg/injection, schedule: Q01DX005 (ip), vehicle: water 105 % of control | dose: 400.0 mg/kg/injection, schedule: Q01DX005 (ip), vehicle: water 113 % of control

COc1cc(/C=C2\C=Nc3ccccc32)ccc1O
inactive: [3] 97 % of control | [4] 105 % of control | [5] 102 % of control

O=C1CSC(=S)N1c1ccc(N2C(=O)CSC2=S)cc1
inactive: dose: 100.0 mg/kg/injection, schedule: Q04DX002 (ip), vehicle: saline with Tween-80 90 % of control | dose: 200.0 mg/kg/injection, schedule: Q04DX002 (ip), vehicle: saline with Tween-80 96 % of control | dose: 400.0 mg/kg/injection, schedule: Q04DX002 (ip), vehicle: saline with Tween-80 100 % of control

CCCCC(/C=N\NC(=O)c1ccc[n+](C)c1)CC (stereo unspecified)
inactive: dose: 50.0 mg/kg/injection, schedule: Q01DX009 (ip), vehicle: saline 103 % of control | [6] 100 % of control

COC(=O)c1ccccc1NC(=O)Nc1ccc(F)c([N+](=O)[O-])c1
inactive: dose: 25.0 mg/kg/injection, schedule: Q01DX009 (ip), vehicle: Klucel (hydroxypropylcellulose) (HPC) 109 % of control | dose: 50.0 mg/kg/injection, schedule: Q01DX009 (ip), vehicle: Klucel (hydroxypropylcellulose) (HPC) 103 % of control | [7] 93 % of control and 89 % of control | [8] 95 % of control | [9] 93 % of control

CN(C)c1ccc(/C=N/NC(=O)c2cccc3ccccc23)c(Cl)c1
inactive: dose: 400.0 mg/kg/injection, schedule: Q01DX001 (ip), vehicle: saline 90 % of control

CCc1oc(=O)c2ccccc2c1-c1ccccc1
inactive: dose: 50.0 mg/kg/injection, schedule: Q01DX009 (ip), vehicle: saline with Tween-80 93 % of control | [10] 90 % of control | [11] 93 % of control

CC(=O)O[C@H]1CC[C@]2(C)C3=C([C@@H](OO)C[C@H]2C1(C)C)[C@]1(C)CC[C@H]([C@H](C)CCCC(C)C)[C@@]1(C)CC3
inactive: dose: 100.0 mg/kg/injection, schedule: Q01DX001 (ip), vehicle: other 97 % of control | dose: 200.0 mg/kg/injection, schedule: Q01DX001 (ip), vehicle: other 95 % of control | dose: 400.0 mg/kg/injection, schedule: Q01DX001 (ip), vehicle: other 95 % of control

CCCCC(=O)N/N=C\c1cc(Cl)cc(Cl)c1
inactive: [12] 100 % of control | [13] 93 % of control | [14] 96 % of control

[N-]=[N+]=CC(=O)NCC(=O)NN=C(CO)CO
inactive: dose: 180.0 mg/kg/injection, schedule: Q01DX009 (ip), vehicle: water 118 % of control | dose: 265.0 mg/kg/injection, schedule: Q01DX009 (ip), vehicle: water 122 % of control

COC(=O)C1OCOC2C(COS(=O)(=O)c3ccc(C)cc3)OCOC12 (stereo unspecified)
inactive: dose: 50.0 mg/kg/injection, schedule: Q04DX002 (ip), vehicle: Klucel (hydroxypropylcellulose) (HPC) 100 % of control | [3] 98 % of control and 111 % of control | [4] 95 % of control and 101 % of control | [5] 101 % of control

C=C(C)C1CCC2CC/C(=N\Nc3ccccc3C(=O)OC)C=C2C1 (stereo unspecified)
inactive: [15] 90 % of control | [16] 94 % of control

CN1C(=O)C(Br)=C(Br)C1=O
inactive: dose: 5.0 mg/kg/injection, schedule: Q01DX001 (ip), vehicle: saline 97 % of control | dose: 10.0 mg/kg/injection, schedule: Q01DX001 (ip), vehicle: saline 94 % of control

Nc1cccc(OCCCCc2ccccc2)c1
inactive: [1] 101 % of control | [2] 95 % of control

Cc1ncc(C(=O)O)n1C(C)c1ccccc1 (stereo unspecified)
inactive: dose: 100.0 mg/kg/injection, schedule: Q01DX001 (ip), vehicle: Klucel (hydroxypropylcellulose) (HPC) 100 % of control | [7] 94 % of control and 104 % of control | [3] 94 % of control and 100 % of control and 102 % of control | [15] 93 % of control | dose: 200.0 mg/kg/injection, schedule: Q01DX001 (ip), vehicle: Klucel (hydroxypropylcellulose) (HPC) 109 % of control | [8] 100 % of control | [4] 94 % of control and 99 % of control and 100 % of control | [16] 95 % of control | dose: 400.0 mg/kg/injection, schedule: Q01DX001 (ip), vehicle: Klucel (hydroxypropylcellulose) (HPC) 96 % of control | [9] 97 % of control and 100 % of control | [5] 98 % of control and 103 % of control and 104 % of control | dose: 400.0 mg/kg/injection, schedule: Q04DX003 (ip), vehicle: Klucel (hydroxypropylcellulose) (HPC) 96 % of control

COC(=O)c1ccc(SSc2ccc(C(=O)OC)cc2[N+](=O)[O-])c([N+](=O)[O-])c1
inactive: [10] 103 % of control | [11] 102 % of control | dose: 400.0 mg/kg/injection, schedule: Q01DX009 (ip), vehicle: saline with Tween-80 92 % of control

CC(=O)C1=C(C)NC(C)=C(C(C)=O)C1c1ccccc1
inactive: [1] 96 % of control | [2] 96 % of control | dose: 400.0 mg/kg/injection, schedule: Q04DX003 (ip), vehicle: saline with Tween-80 98 % of control

O=C(N/N=C/c1ccc2c(c1)OCO2)C(O)(c1ccccc1)c1ccccc1
inactive: [12] 106 % of control | [13] 95 % of control | [14] 103 % of control
